As a reminder, the IC50 is the concentration needed to halve the response being measured. A higher IC50 goes with a need for much substance.

In the Kinase Knowledgebase extract (Sharma et al. 2016) one finds IC50 data, which are given here for 23 compounds.

One experiment addresses PIK3CD (Human) (UniProt O00329). The experiment is described as follows: Enzyme Assay.
In a further experiment the target is PIK3CG (human) (UniProt P48736). Put plainly: Enzyme Assay.
PIK3CG (human), sequence (P48736 whole entry, looked up): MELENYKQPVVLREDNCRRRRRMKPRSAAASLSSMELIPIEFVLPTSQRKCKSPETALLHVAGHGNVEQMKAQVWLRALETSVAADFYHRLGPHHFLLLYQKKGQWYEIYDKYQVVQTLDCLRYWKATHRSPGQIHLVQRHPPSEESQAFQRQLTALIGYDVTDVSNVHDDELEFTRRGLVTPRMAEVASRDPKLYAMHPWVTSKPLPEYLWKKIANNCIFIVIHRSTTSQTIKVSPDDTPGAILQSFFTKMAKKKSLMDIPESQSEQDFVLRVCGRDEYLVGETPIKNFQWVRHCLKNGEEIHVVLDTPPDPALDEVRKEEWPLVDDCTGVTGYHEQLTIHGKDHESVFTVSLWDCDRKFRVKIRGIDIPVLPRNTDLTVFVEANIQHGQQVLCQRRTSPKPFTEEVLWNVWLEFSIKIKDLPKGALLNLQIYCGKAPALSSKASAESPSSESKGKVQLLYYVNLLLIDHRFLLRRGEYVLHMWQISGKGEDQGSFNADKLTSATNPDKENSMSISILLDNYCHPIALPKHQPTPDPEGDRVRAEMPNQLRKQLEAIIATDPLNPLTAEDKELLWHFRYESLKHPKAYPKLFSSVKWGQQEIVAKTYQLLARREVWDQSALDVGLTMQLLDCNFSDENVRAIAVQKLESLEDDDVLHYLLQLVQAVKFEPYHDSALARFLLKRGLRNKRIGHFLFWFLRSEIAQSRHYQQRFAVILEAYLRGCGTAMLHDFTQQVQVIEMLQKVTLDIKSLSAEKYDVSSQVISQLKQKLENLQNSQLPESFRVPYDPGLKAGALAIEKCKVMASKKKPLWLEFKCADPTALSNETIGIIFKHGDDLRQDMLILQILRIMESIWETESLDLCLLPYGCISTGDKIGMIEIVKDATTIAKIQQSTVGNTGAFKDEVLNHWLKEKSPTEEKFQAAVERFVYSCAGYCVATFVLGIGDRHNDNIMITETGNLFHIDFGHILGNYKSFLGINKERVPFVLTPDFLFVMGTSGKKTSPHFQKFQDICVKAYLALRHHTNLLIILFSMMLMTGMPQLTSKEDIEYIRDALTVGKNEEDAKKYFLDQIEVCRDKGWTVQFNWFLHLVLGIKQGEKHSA

PIK3CD (Human), sequence (O00329 whole entry, looked up): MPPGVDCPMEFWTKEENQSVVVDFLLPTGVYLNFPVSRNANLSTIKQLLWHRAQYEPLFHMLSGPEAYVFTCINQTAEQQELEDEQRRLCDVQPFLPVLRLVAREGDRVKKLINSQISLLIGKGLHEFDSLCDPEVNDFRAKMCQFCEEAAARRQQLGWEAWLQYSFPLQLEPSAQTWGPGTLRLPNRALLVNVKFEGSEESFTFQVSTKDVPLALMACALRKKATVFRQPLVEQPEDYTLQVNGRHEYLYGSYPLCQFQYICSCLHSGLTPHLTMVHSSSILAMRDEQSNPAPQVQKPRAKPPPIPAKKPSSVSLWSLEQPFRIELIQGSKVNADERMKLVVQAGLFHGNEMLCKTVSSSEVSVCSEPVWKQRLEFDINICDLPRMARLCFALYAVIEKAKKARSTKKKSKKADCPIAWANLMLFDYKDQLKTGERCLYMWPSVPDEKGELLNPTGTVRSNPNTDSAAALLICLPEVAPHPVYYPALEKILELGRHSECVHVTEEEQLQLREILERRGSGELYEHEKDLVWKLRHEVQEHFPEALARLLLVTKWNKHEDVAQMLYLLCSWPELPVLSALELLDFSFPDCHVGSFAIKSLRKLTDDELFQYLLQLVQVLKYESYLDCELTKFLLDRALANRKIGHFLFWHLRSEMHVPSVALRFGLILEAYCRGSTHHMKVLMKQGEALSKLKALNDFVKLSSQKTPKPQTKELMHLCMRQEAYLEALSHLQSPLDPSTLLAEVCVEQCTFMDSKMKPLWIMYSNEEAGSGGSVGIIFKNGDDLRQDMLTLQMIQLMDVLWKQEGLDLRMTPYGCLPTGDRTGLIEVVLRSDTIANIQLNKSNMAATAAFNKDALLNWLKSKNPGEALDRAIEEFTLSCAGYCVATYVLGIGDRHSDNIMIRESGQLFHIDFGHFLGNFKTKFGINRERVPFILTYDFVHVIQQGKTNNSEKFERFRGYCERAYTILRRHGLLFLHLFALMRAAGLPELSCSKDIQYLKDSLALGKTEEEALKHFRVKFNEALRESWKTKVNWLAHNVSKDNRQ

For the compound `CCC(Nc1nc(N)nc(C)c1/C=C1\CC(=O)NC1=O)c1nc2cccc(C)c2c(=O)n1-c1ccccc1` (configuration not stated), the half-inhibitory concentration (IC50) on PIK3CD (Human) was 10 to 100 nM. Same read-out and setting: under `CCC(Nc1nc(N)nc(C)c1/C=C/C(=O)n1cccn1)c1nc2cccc(C)c2c(=O)n1-c1ccccc1` (configuration not stated) stands 10 to 100 nM.

Take `CCC(Nc1nc(N)nc(C)c1/C=C/C(=O)N1CCNCC1)c1nc2cccc(C)c2c(=O)n1-c1ccccc1` (configuration not stated): the 50% inhibitory concentration (IC50) on PIK3CD (Human) was in the range of 10 to 100 nM. With `CCC(Nc1nc(N)ncc1-c1cncc(S(=O)(=O)Nc2ccccc2C)c1)c1nc2cccc(F)c2c(=O)n1-c1ccccc1` (configuration not stated), the values for the half-inhibitory concentration (IC50) against PIK3CD (Human) and against PIK3CG (human) were under 20 nM and 100 to 1000 nM, respectively. The corresponding values for `CCC(Nc1nc(N)ncc1-c1cncc(S(=O)(=O)N(C)C)c1)c1nc2cccc(F)c2c(=O)n1-c1ccccc1` (configuration not stated) are 20 to 100 nM and 20 to 100 nM. At PIK3CD (Human), `CCC(Nc1nc(N)nc(C)c1/C=C/C(=O)Nc1cccnc1)c1nc2cccc(C)c2c(=O)n1-c1ccccc1` (configuration not stated) gave an IC50 of under 10 nM. The same measure, in the same setting: to `CCC(Nc1nc(N)nc(C)c1/C=C/C(=O)NC)c1nc2cccc(C)c2c(=O)n1-c1ccccc1` (configuration not stated) belongs under 10 nM. As for `CCC(Nc1nc(N)ncc1-c1cncc(S(N)(=O)=O)c1)c1nc2cccc(F)c2c(=O)n1-c1ccccc1` (configuration not stated), the IC50 at PIK3CD (Human) and on PIK3CG (human) was 20 to 100 nM in each case. `CCC(Nc1nc(N)ncc1-c1cncc(S(=O)(=O)Nc2ccccc2F)c1)c1nc2cccc(F)c2c(=O)n1-c1ccccc1` (configuration not stated): the values for the IC50 at PIK3CD (Human) and on PIK3CG (human) were under 20 nM and 20 to 100 nM, respectively. Take `CCC(Nc1nc(N)nc(C)c1/C=C/C(=O)N1CCOCC1)c1nc2cccc(C)c2c(=O)n1-c1ccccc1` (configuration not stated): the IC50 at PIK3CD (Human) is under 10 nM. With `CCC(Nc1nc(N)ncc1-c1cncc(S(=O)(=O)NC(C)(C)C)c1)c1nc2cccc(C)c2c(=O)n1-c1ccccc1` (configuration not stated), the IC50 against PIK3CD (Human) was under 20 nM; against PIK3CG (human), 20 to 100 nM. In the same order, the values of `CCC(Nc1nc(N)ncc1-c1cncc(S(=O)(=O)Nc2ccc(F)c(Cl)c2)c1)c1nc2cccc(F)c2c(=O)n1-c1ccccc1` (configuration not stated) are under 20 nM and 20 to 100 nM.

Consider `CCC(Nc1nc(N)nc(C)c1-c1cncc(S(N)(=O)=O)c1)c1nc2cccc(F)c2c(=O)n1-c1ccccc1` (configuration not stated), for which the half-inhibitory concentration (IC50) at PIK3CD (Human) lay within 20 to 100 nM; on PIK3CG (human), 100 to 1000 nM. At PIK3CD (Human), `CCC(Nc1nc(N)nc(C)c1/C=C/C(=O)Nc1cccc(C)n1)c1nc2cccc(C)c2c(=O)n1-c1ccccc1` (configuration not stated) came in with an IC50 of under 10 nM. Consider `C=Cc1c(C)nc(N)nc1NC(CC)c1nc2cccc(C)c2c(=O)n1-c1ccccc1` (configuration not stated), for which, on PIK3CD (Human), the IC50 was 10 to 100 nM. The same measure, in the same setting: under `CCC(Nc1nc(N)nc(C)c1/C=C/C(=O)NC(C)C)c1nc2cccc(C)c2c(=O)n1-c1ccccc1` (configuration not stated) stands 10 to 100 nM. As to `CCC(Nc1nc(N)ncc1-c1cncc(S(=O)(=O)N2CCCC2)c1)c1nc2cccc(F)c2c(=O)n1-c1ccccc1` (configuration not stated), the IC50 on PIK3CD (Human) and against PIK3CG (human) was under 20 nM throughout.

As to `CCC(Nc1nc(N)ncc1-c1cncc(S(=O)(=O)C(C)C)c1)c1nc2cccc(F)c2c(=O)n1-c1ccccc1` (configuration not stated), the IC50 at PIK3CD (Human) is 20 to 100 nM; on PIK3CG (human) it was 100 to 1000 nM. Regarding `CCNC(=O)/C=C/c1c(C)nc(N)nc1NC(CC)c1nc2cccc(C)c2c(=O)n1-c1ccccc1` (configuration not stated), on PIK3CD (Human), the IC50 is 10 to 100 nM. Still for that read-out and setting: under `CCC(Nc1nc(N)nc(C)c1/C=C/C(=O)Nc1ccncc1)c1nc2cccc(C)c2c(=O)n1-c1ccccc1` (configuration not stated) stands 10 to 100 nM. The same measure, in the same setting: under `CCC(Nc1nc(N)nc(C)c1/C=C/C(=O)Nc1ccccn1)c1nc2cccc(C)c2c(=O)n1-c1ccccc1` (configuration not stated) stands under 10 nM; under `CCC(Nc1nc(N)nc(C)c1/C=C/C(N)=O)c1nc2cccc(C)c2c(=O)n1-c1ccccc1` (configuration not stated), under 10 nM; under `CCC(Nc1nc(N)nc(C)c1/C=C/C(=O)Nc1nccs1)c1nc2cccc(C)c2c(=O)n1-c1ccccc1` (configuration not stated), under 10 nM.
